# Measurements reported in patent US10377770B2 (Novartis AG, priority 2015, dated 2019).
# Target: C-Raf FL (full length CRAF with Y340E and Y341E activating mutations, co-expressed with h14-3-3 zeta) (Homo sapiens (Human), UniProt P04049, Y340E/Y341E)
# Assay: In vitro Raf activity determination, AlphaScreen p-MEK readout, c-Raf (C-Raf FL)
# Format: biochemical
# Details: c-Raf approximately 4 nM, ATP 1 μM, pre-incubation 60 minutes, reaction 1 hour
# Method in brief: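 Phosphorylation of kinase-dead biotinylated MEK1 (~10 nM) by C-Raf FL (~4 nM) read by AlphaScreen luminescence with anti-phospho-MEK1/2 after EDTA stop. ATP was 1 μM, with a 1 h reaction at room temperature. Compounds were pre-incubated with enzyme and substrate for 60 min in Tris/MgCl2 buffer, pH 7.5.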
# C-Raf FL (full length CRAF with Y340E and Y341E activating mutations, co-expressed with h14-3-3 zeta), sequence (P04049 whole entry Y340E/Y341E): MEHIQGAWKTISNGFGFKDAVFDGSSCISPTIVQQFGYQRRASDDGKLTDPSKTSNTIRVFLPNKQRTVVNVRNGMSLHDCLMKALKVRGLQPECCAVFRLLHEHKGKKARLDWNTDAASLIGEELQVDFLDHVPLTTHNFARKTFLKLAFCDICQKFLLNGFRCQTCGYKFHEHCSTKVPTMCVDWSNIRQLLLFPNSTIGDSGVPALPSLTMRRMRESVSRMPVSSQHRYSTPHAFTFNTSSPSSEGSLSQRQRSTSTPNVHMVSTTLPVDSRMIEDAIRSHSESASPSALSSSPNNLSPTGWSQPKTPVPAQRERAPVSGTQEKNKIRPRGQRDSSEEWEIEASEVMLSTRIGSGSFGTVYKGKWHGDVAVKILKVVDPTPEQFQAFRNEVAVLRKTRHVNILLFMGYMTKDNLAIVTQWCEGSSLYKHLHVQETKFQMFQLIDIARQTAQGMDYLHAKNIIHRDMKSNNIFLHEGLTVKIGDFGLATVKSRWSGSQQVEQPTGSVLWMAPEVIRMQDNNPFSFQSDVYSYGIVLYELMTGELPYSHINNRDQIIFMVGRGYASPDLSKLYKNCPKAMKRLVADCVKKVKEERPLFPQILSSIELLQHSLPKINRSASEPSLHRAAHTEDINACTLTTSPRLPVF
# C-Raf FL (full length CRAF with Y340E and Y341E activating mutations, co-expressed with h14-3-3 zeta), sequence (P63104 whole entry partner): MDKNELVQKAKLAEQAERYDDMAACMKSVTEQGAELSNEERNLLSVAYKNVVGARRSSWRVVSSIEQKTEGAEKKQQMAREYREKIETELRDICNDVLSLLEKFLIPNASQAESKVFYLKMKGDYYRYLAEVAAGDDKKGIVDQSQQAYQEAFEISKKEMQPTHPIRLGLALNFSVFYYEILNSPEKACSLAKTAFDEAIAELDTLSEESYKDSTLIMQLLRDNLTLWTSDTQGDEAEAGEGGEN
row,Compound,IC50 [nM]
1,"Cc1ccc(NC(=O)c2ccnc(C(F)(F)F)c2F)cc1-c1ccc2c(c1)N1CCOC[C@H]1[C@](F)(CO)C2 [Example 385, 3-fluoro-N-(3-((4aS,5S)-5-fluoro-5-(hydroxymethyl)-1,2,4,4a,5,6-hexahydro-[1,4]oxazino[4,3-a]quinolin-9-yl)-4-methylphenyl)-2-(trifluoromethyl)isonicotinamide]",0.6
2,"Cc1ccc(NC(=O)c2cncc(C(F)(F)F)c2)cc1-c1cc(F)c2c(c1)N1CCOC[C@H]1[C@@](F)(CO)C2 [Example 434, N-(3-((4aS,5R)-5,7-difluoro-5-(hydroxymethyl)-1,2,4,4a,5,6-hexahydro-[1,4]oxazino[4,3-a]quinolin-9-yl)-4-methylphenyl)-5-(trifluoromethyl)nicotinamide]",1.3
3,"Cc1ccc(NC(=O)c2ccnc(C(C)(F)F)c2)cc1-c1cnc2c(c1)N1CCOC[C@@H]1[C@@H](C(C)(C)O)C2 [Example 459, 2-(1,1-difluoroethyl)-N-(3-((4aS,5S)-5-(2-hydroxypropan-2-yl)-1,2,4,4a,5,6-hexahydro-[1,4]oxazino[4,3-a][1,5]naphthyridin-9-yl)-4-methylphenyl) isonicotinamide]",0.4
4,"Cc1ccc(NC(=O)c2ccnc(C(C)(C)C#N)c2)cc1-c1cnc2c(c1)N1CCOCC1C1(COC1)C2 (racemic) [Example 157, rac-2-(2-cyanopropan-2-yl)-N-(4-methyl-3-(2,4,4a,6-tetrahydro-1H-spiro[[1,4]oxazino[4,3-a][1,5]naphthyridine-5,3′-oxetan]-9-yl)phenyl)isonicotinamide]",0.16
5,"CCN1C(=O)C2(F)COCC[C@@H]2c2cc(-c3cc(NC(=O)c4ccnc(C(F)(F)F)c4)ccc3C)cnc21 (stereo partly drawn) [Example 339, N-(3-((10bR)-6-ethyl-4a-fluoro-5-oxo-2,4,4a,5,6,10b-hexahydro-1H-pyrano[3,4-c][1,8]naphthyridin-9-yl)-4-methylphenyl)-2-(trifluoromethyl) isonicotinamide]",0.5
6,"Cc1ccc(NC(=O)c2ccnc(C(C)(C)F)c2)cc1-c1ccc2c(c1)N1CCOC[C@@H]1[C@](F)(CO)C2 [Example 400, N-(3-((4aR,5S)-5-fluoro-5-(hydroxymethyl)-1,2,4,4a,5,6-hexahydro-[1,4]oxazino[4,3-a]quinolin-9-yl)-4-methylphenyl)-2-(2-fluoropropan-2-yl)isonicotinamide]",0.1
7,"Cc1ccc(NC(=O)c2ccnc(C(C)(F)F)c2)cc1-c1cnc2c(c1)N1CCOCC1C(CO)(CO)C2 (racemic) [Example 158, rac-N-(3-(5,5-bis(hydroxymethyl)-yl)-1,2,4,4a,5,6-hexahydro-[1,4]oxazino[4,3-a][1,5]naphthyridin-9-yl)-4-methylphenyl)-2-(1,1-difluoroethyl)isonicotinamide]",0.01
8,"Cc1ccc(NC(=O)c2ccnc(C(C)(F)F)c2)cc1-c1cnc2c(c1)N1CCOC[C@H]1C[C@@]2(C)O (racemic) [Example 41, (rac)-(trans)-2-(1,1-difluoroethyl)-N-(3-(6-hydroxy-6-methyl-1,2,4,4a,5,6-hexahydro-[1,4]oxazino[4,3-a][1,5]naphthyridin-9-yl)-4-methylphenyl)isonicotinamide]",0.0099
9,"Cc1ccc(NC(=O)c2ccnc(C(F)(F)F)c2F)cc1-c1cnc2c(c1)N1CCOC[C@H]1C[C@H]2OCCO [Example 510, 3-fluoro-N-(3-((4aR,6R)-6-(2-hydroxyethoxy)-1,2,4,4a,5,6-hexahydro-[1,4]oxazino[4,3-a][1,5]naphthyridin-9-yl)-4-methylphenyl)-2-(trifluoromethyl)iso-nicotinamide]",0.1
10,"CCN1C[C@H]2COCCN2c2cc(-c3cc(NC(=O)c4ccnc(C(F)(F)F)c4)ccc3C)cnc2C1=O [Example 496, (S)-N-(3-(6-ethyl-7-oxo-1,2,4a,5,6,7-hexahydro-4H-[1,4]oxazino[4,3-a]pyrido[2,3-f][1,4]diazepin-10-yl)-4-methylphenyl)-2-(trifluoromethyl)iso-nicotinamide]",0.7
11,"Cc1ccc(NC(=O)c2ccnc(C(C)(F)F)c2)cc1-c1cnc2c(c1)[C@@H]1CCOC[C@H]1C(=O)N2CC(C)(C)O [Example 287, 2-(1,1-difluoroethyl)-N-(3-((4aS,10bR)-6-(2-hydroxy-2-methylpropyl)-5-oxo-2,4,4a,5,6,10b-hexahydro-1H-pyrano[3,4-c][1,8]naphthyridin-9-yl)-4-methylphenyl) isonicotinamide]",0.2
12,"CCN1C(=O)[C@@H]2COCC[C@H]2c2cc(-c3cc(NC(=O)c4ccnc(C(C)(C)F)c4)cnc3C)cnc21 [Example 313, N-(5-((4aS, 10bR)-6-ethyl-5-oxo-1,4,4a,5,6,10b-hexahydro-2H-pyrano[3,4-c][1,8]naphthyridin-9-yl)-6-methylpyridin-3-yl)-2-(2-fluoropropan-2-yl)isonicotinamide]",0.5
13,"Cc1ccc(NC(=O)c2ccnc(C(C)(C)F)c2)cc1-c1cc2c(cc1F)C[C@@](F)(CO)[C@@H]1COCCN21 [Example 483, N-(3-((4aS,5S)-5,8-difluoro-5-(hydroxymethyl)-1,2,4,4a,5,6-hexahydro-[1,4]oxazino[4,3-a]quinolin-9-yl)-4-methylphenyl)-2-(2-fluoropropan-2-yl)isonicotinamide]",1
14,"Cc1ccc(NC(=O)c2ccnc(C(F)(F)F)c2)cc1-c1cnc2c(c1)N1CCOCC1CC2N (racemic) [Example 171, rac-N-(3-(6-amino-1,2,4,4a,5,6-hexahydro-[1,4]oxazino[4,3-a][1,5]naphthyridin-9-yl)-4-methylphenyl)-2-(trifluoromethyl)isonicotinamide]",0.019
15,"Cc1ncc(NC(=O)c2ccnc(C(C)(F)F)c2)cc1-c1cnc2c(c1)N1CCOC[C@H]1C[C@@H]2O (racemic) [Example 148, rac-cis-2-(1,1-difluoroethyl)-N-(5-(6-hydroxy-1,2,4,4a,5,6-hexahydro-[1,4]oxazino[4,3-a][1,5]naphthyridin-9-yl)-6-methylpyridin-3-yl)isonicotinamide]",0.046
16,"CCN1C(=O)[C@H]2COCC[C@@H]2c2cc(-c3cc(NC(=O)c4ccnc(C(F)(F)F)c4)ccc3C)cnc21 [Example 236, N-(3-((4aR,10bS)-6-ethyl-5-oxo-1,4,4a,5,6,10b-hexahydro-2H-pyrano[3,4-c][1,8]naphthyridin-9-yl)-4-methylphenyl)-2-(trifluoromethyl)isonicotinamide]",0.3
17,"COC1CC2COCCN2c2cc(-c3cc(NC(=O)c4ccnc(C(C)(F)F)c4)ccc3C)cnc21 (stereo not shown) [Example 33, 2-(1,1-difluoroethyl)-N-(3-(6-methoxy-1,2,4,4a,5,6-hexahydro-[1,4]oxazino[4,3-a][1,5]naphthyridin-9-yl)-4-methylphenyl)isonicotinamide]",0.0082
18,"Cc1ccc(NC(=O)c2ccnc(C(F)(F)F)c2)cc1-c1cnc2c(c1)N1CCOCC1C(C)(C)C2O (stereo not shown) [Example 335, N-(3-(6-hydroxy-5,5-dimethyl-1,2,4,4a,5,6-hexahydro-[1.4]oxazino[4,3-a][1.5]naphthyridin-9-yl)-4-methylphenyl)-2-(trifluoromethyl) isonicotinamide]",0.1
19,"Cc1ccc(NC(=O)c2ccnc(C(C)(F)F)c2)cc1-c1ccc2c(c1)N1CCOC[C@H]1[C@@](C)(N)C2 (racemic) [Example 93, (rac)-(anti)-N-(3-(5-amino-5-methyl-1,2,4,4a,5,6-hexahydro-[1,4]oxazino[4,3-a]quinolin-9-yl)-4-methylphenyl)-2-(1,1-difluoroethyl)isonicotinamide]",0.025
20,"Cc1ccc(NC(=O)c2ccnc(C(C)(C)F)c2)cc1-c1ccc2c(c1)N1CCOC[C@H]1[C@](F)(CO)C2 [Example 386, N-(3-((4aS,5S)-5-fluoro-5-(hydroxymethyl)-1,2,4,4a,5,6-hexahydro-[1,4]oxazino[4,3-a]quinolin-9-yl)-4-methylphenyl)-2-(2-fluoropropan-2-yl)isonicotinamide]",0.3
21,"Cc1ccc(NC(=O)c2ccnc(C(C)(F)F)c2)cc1-c1cnc2c(c1)N1CCOC[C@@H]1[C@@H](C(C)(C)O)C2 [Example 456, 2-(1,1-difluoroethyl)-N-(3-((4aS,5S)-5-(2-hydroxypropan-2-yl)-1,2,4,4a,5,6-hexahydro-[1,4]oxazino[4,3-a][1,5]naphthyridin-9-yl)-4-methylphenyl) isonicotinamide]",0.7
22,"Cc1ccc(NC(=O)c2ccnc(C(C)(F)F)c2)cc1-c1cc(F)c2c(c1)N1CCOC[C@@H]1[C@](F)(CO)C2 [Example 436, N-(3-((4aR,5S)-5,7-difluoro-5-(hydroxymethyl)-1,2,4,4a,5,6-hexahydro-[1,4]oxazino[4,3-a]quinolin-9-yl)-4-methylphenyl)-2-(1,1-difluoroethyl) isonicotinamide]",0.3
